Experimental findings from patent US20070032480A1, “Treatment of ischemia-induced arrhythmias” (The Johns Hopkins University, priority 2005, published 2007) are described below.

Entries after “also recorded” stand apart in the source; their conditions may differ.

Experiment [1] concerns freshly isolated adult guinea pig ventricular myocytes. Kind of experiment: ΔΨm oscillations and action potentials in isolated cardiomyocytes (two-photon TMRM imaging with current-clamp). The class given is cell-based.
In experiment [2] the test system is Langendorff-perfused guinea pig hearts. Kind of experiment: Baseline electrophysiological properties (APD, CV) of perfused hearts by optical mapping. As to conditions: for baseline APD / baseline CV (conduction velocity): optimal concentration of each agent (4.6 μM FGIN-1-27, 0.2 μM CsA, 64 μM 4′Cl-DZP, 10 μM GLIBEN). The method, then: All procedures involving the handling of animals were approved by the Animal Care and Use Committee of the Johns Hopkins University and adhered with public health service guidelines. As described in detail elsewhere (28), adult guinea pigs (n=48) were anesthetized with pentobarbital sodium (30 mg/kg ip), and retrogradely perfused as Langendorff preparations with oxygenated (95% 02-5% CO2) Tyrode solution containing (in mmol/l) 130 NaCl, 1.2 MgSO4, 4.75 KCl, 5.0 dextrose, and 1.25 CaCl2 (pH 7.40) at 36±1° C. Hearts were stained with the voltage-sensitive dye, di-4-ANEPPS (15 μmol/l) for 10 min, and then positioned in a chamber such that the mapping field was centered over a 0.8 cm diameter region of left ventricular epicardium, midway between apex and base. Gentle pressure was applied to the posterior surface of the heart with a movable piston to stabilize the mapped surface against the imaging window of the chamber allowing us to avoid the use of electromechanical inhibitors, which interfere with repolarization, and the incidence of arrhythmias. […] Pacing with a silver pin needle placed on the epicardium was performed intermittently and briefly at various times during the experimental protocol in order to obtain a quantitative assessment of epicardial conduction velocity at each time point. Pacing was then turned off in order to determine the intrinsic response of hearts to the ischemia reperfusion protocol independent of exogenous stimulation.
(§1) An optical mapping system was designed with the capability of simultaneously recording transmembrane action potentials (APs) from 464 sites. Emitted fluorescence was collected using a custom designed optical macroscope imaging system consisting of a high numerical aperture photographic lens, a dichroic mirror and an emission filter as previously described in detail (29). Emitted light exiting the detector lens was filtered (>610 nm) and focused onto the photodiode array. Photocurrent from each photodiode underwent current-to-voltage conversion, amplification, band-pass filtering, multiplexing, and digitization (1600 samples/s per channel) with 16-bit precision.
Following extraction and staining with di-4-ANEPPS, hearts were stabilized for 30 min. […] Pharmacological agents were delivered to the heart in one of two ways: 1) continuously, during control perfusion and reperfusion, or 2) in a high dose bolus (5-10× the optimal equilibration concentration), injected into the coronaries during the ischemic phase, 5 min before the onset of reperfusion. […] Following baseline perfusion at 15-20 mL/min to maintain a perfusion pressure of 60-70 mmHg, flow was completely stopped for 30 min (Ischemia phase), and APs (3.8 s epochs) were recorded at 1-min intervals. Following the ischemia phase, perfusion was restored initially at the same flow rate and then was adjusted slightly to exactly match the perfusion pressure during the baseline perfusion phase (Reperfusion phase). The optimal equilibration concentration of each agent was determined by its effects on ischemia-induced AP shortening, recovery of the AP duration (APD), and/or prevention of arrhythmias upon reperfusion.
In order to investigate whether mitochondrial ROS-induced activation of IMAC underlies the electrical dysfunction of hearts subjected to IR, a protocol for reproducibly inducing ventricular fibrillation (VF) in Langendorff-perfused guinea pig hearts was established.

For experiment [3] the test system is unchanged. Kind of experiment: Electrophysiological response to 30 min no-flow global ischemia. The following applies: for blunting of AP shortening and persistence of APs during ischemia at the highest concentration: 100 μM, 30 min no-flow ischemia; for ischemia-induced APD shortening: pre-treatment before no-flow ischemia; for ischemia-induced APD shortening / ischemia-induced reduction of normalized APA and upstroke velocity (dF/dt): versus control hearts; for ischemia-induced reduction of normalized APA and upstroke velocity (dF/dt): relative to pre-ischemia baseline; for time for the onset of inexcitability during ischemia: no-flow ischemia, control hearts ˜18 min. The method, then:
(§2) All procedures involving the handling of animals were approved by the Animal Care and Use Committee of the Johns Hopkins University and adhered with public health service guidelines. As described in detail elsewhere (28), adult guinea pigs (n=48) were anesthetized with pentobarbital sodium (30 mg/kg ip), and retrogradely perfused as Langendorff preparations with oxygenated (95% 02-5% CO2) Tyrode solution containing (in mmol/l) 130 NaCl, 1.2 MgSO4, 4.75 KCl, 5.0 dextrose, and 1.25 CaCl2 (pH 7.40) at 36±1° C. Hearts were stained with the voltage-sensitive dye, di-4-ANEPPS (15 μmol/l) for 10 min, and then positioned in a chamber such that the mapping field was centered over a 0.8 cm diameter region of left ventricular epicardium, midway between apex and base. Gentle pressure was applied to the posterior surface of the heart with a movable piston to stabilize the mapped surface against the imaging window of the chamber allowing us to avoid the use of electromechanical inhibitors, which interfere with repolarization, and the incidence of arrhythmias. Although experiments were typically completed within 1.5 to 2 h, these preparations remained stable for over 4 h of perfusion. Pacing with a silver pin needle placed on the epicardium was performed intermittently and briefly at various times during the experimental protocol in order to obtain a quantitative assessment of epicardial conduction velocity at each time point. Pacing was then turned off in order to determine the intrinsic response of hearts to the ischemia reperfusion protocol independent of exogenous stimulation.
as §1
(§3) Following extraction and staining with di-4-ANEPPS, hearts were stabilized for 30 min. Monitoring of APs, perfusion pressure, coronary flow, and temperature ensured electrical stability in all preparations (n=48) used in this study. Pharmacological agents were delivered to the heart in one of two ways: 1) continuously, during control perfusion and reperfusion, or 2) in a high dose bolus (5-10× the optimal equilibration concentration), injected into the coronaries during the ischemic phase, 5 min before the onset of reperfusion. […] Following baseline perfusion at 15-20 mL/min to maintain a perfusion pressure of 60-70 mmHg, flow was completely stopped for 30 min (Ischemia phase), and APs (3.8 s epochs) were recorded at 1-min intervals. Following the ischemia phase, perfusion was restored initially at the same flow rate and then was adjusted slightly to exactly match the perfusion pressure during the baseline perfusion phase (Reperfusion phase). The optimal equilibration concentration of each agent was determined by its effects on ischemia-induced AP shortening, recovery of the AP duration (APD), and/or prevention of arrhythmias upon reperfusion.
Next, the ability of any of these pharmacological interventions to modulate the electrophysiological response of hearts to no-flow global ischemia was tested. […] Also, APD shortening in ischemia was accompanied by progressive reduction of the AP upstroke velocity, which occurred over a similar time frame (see, for example, FIG. 4).
Ischemic elevation of extracellular K^+ concentration, which may be mediated in part by KATP channel opening, might also be expected to partially depolarize the cellular resting membrane potential. […]

Experiment [4] has the same test system. The experiment can be described thus: Response to reperfusion after 30 min ischemia (arrhythmias, AP recovery). The following applies: for period of electrical inexcitability upon reperfusion: 0.2 μM CsA, 4′-Cl-DZP pretreated hearts; for post-ischemic (reperfusion) arrhythmias, effect in words: reperfusion after 30 min ischemia. The protocol:
as §2, §1, §3
Reperfusion of untreated control hearts was associated with sustained ventricular fibrillation (VF) in 89% of hearts (FIG. 5).

For the compound `CN1C(=O)CN=C(c2ccc(Cl)cc2)c2cc(Cl)ccc21` [4′-Cl-DZP, 4′-chlorodiazepam], in experiment [1] (64 μM), the “time from drug application to suppression of AP oscillations and stabilisation of APD90” value was not above 2 min. For the same compound, the “oscillations in APD” value in experiment [1] (current-clamp, laser-triggered oscillations, 64 μM) was “eliminated oscillations in APD; also recorded: APD oscillations are eliminated”. In addition, in experiment [1] (oscillations triggered by focal two-photon laser flash, TMRM fluorescence), the “whole-cell oscillations in ΔΨm” value was “suppressed whole-cell oscillations in ΔΨm; also recorded: interruption of mitochondrial oscillations with ΔΨm recovery”. Moreover, the “time to return of ΔΨm oscillations after washout of the compound” value in experiment [1] (washout, FIG. 1A) was not above 10 min. The “effect on APD or CV during baseline perfusion” value in experiment [2] (100 μM, baseline perfusion) is “no significant effect on APD or CV; also recorded: comparable”. Further, in experiment [2] (baseline perfusion), the “baseline APD” value was determined as 188 ± 16 ms and the “baseline CV (conduction velocity)” value stood at 39 ± 5 cm/s. Moreover, in experiment [3], the “blunting of AP shortening and persistence of APs during ischemia at the highest concentration” value is on record as “APs persisted even after 30 min of no-flow ischemia”; the “ischemia-induced APD shortening” value was “blunted APD shortening in a dose-dependent fashion; also recorded: blunted APD shortening during ischemia”; the “ischemia-induced reduction of normalized APA and upstroke velocity (dF/dt)” value is reported as “protected against such decrease in both parameters”. For the same compound, in experiment [3] (listed as 4′Cl-DZP), the “blunting of AP shortening and persistence of APs during ischemia at the highest concentration” value was “most effective in blunting AP shortening during ischemia”. Moreover, in experiment [4], the “period of electrical inexcitability upon reperfusion” value is listed as less than 2 min and the “post-ischemic (reperfusion) arrhythmias, effect in words” value (“post-ischemic (reperfusion) arrhythmias” for short) is listed as “markedly decreased the incidence of post-ischemic arrhythmias; also recorded: more effective than continuous inhibition of KATP channels”. Moreover, the “restoring the APD upon reperfusion and preventing arrhythmias” value in experiment [4] (100 μM versus 64 μM) was “not as effective as the lower concentration of 64 μM in restoring the APD upon reperfusion and preventing arrhythmias”. In addition, in experiment [4] (320 μM high dose bolus 5 min prior to onset of reperfusion), the “prevention of reperfusion-related VF” value is reported as 4 of 4. For the same compound, in experiment [4] (32-64 μM delivered continuously prior to ischemia), the “prevention of reperfusion-related VF” value was 6 of 8. The “hearts that exhibited no sustained arrhythmias upon reperfusion” value in experiment [4] (all 4′-Cl-DZP treated hearts (continuous and bolus)) is listed as 10 of 12. The “recovery of the AP upon reperfusion” value in experiment [4] (optimal concentrations (64 μM 4′-Cl-DZP, 0.2 μM CsA)) is “promoted the rapid recovery of the AP morphology and duration”. Moreover, the “post-ischemic (reperfusion) arrhythmias” value in experiment [4] (listed as 4′CL-DZP) was “prevented reperfusion-related ventricular fibrillation”.
Turning to `CCCCCCN(CCCCCC)C(=O)Cc1c(-c2ccc(F)cc2)[nH]c2ccccc12` [FGIN-1-27], in experiment [2] (46 μM, normal perfusion), the “effect on APD and excitability during normal perfusion” value was “significant APD shortening and membrane inexcitability”; the “time from drug delivery to APD shortening and membrane inexcitability” value was not above 15 min. In addition, in experiment [2] (baseline perfusion), the “baseline APD” value is 174 ± 16 ms and the “baseline CV (conduction velocity)” value worked out at 44 ± 6 cm/s. Further, in experiment [3], the “time for the onset of inexcitability during ischemia” value came to 12.7 ± 2.6 min; the “ischemia-induced APD shortening” value was “accelerated APD shortening during ischemia”; the “ischemia-induced reduction of normalized APA and upstroke velocity (dF/dt)” value was “accentuated the ischemia-induced reduction of APA and dF/dt; also recorded: more enhanced reduction of action potential amplitude”. Further, the “slowing of CV during ischemia” value in experiment [3] (versus untreated hearts) is given as “disproportionate slowing of CV”. Further, in experiment [4], the “period of electrical inexcitability upon reperfusion” value is recorded as “prolonged period of electrical silence” and the “post-ischemic (reperfusion) arrhythmias” value was “long period of electrical silence followed by ventricular tachycardia (VT) of long duration”. In experiment [4] (FGIN-1-27 treated hearts), the “hearts with ventricular tachycardia (VT) upon reperfusion” value was 6 of 6. Moreover, the “cycle length of VT upon reperfusion” value in experiment [4] (compared to control hearts) was “significantly longer cycle length”.
Turning to `COc1ccc(Cl)cc1C(=O)NCCc1ccc(S(=O)(=O)NC(=O)NC2CCCCC2)cc1` [GLIBEN], in experiment [2] (baseline perfusion), the “baseline APD” value was determined as 182 ± 16 ms and the “baseline CV (conduction velocity)” value worked out at 41 ± 5 cm/s. Besides, in experiment [3], the “time for the onset of inexcitability during ischemia” value is approximately 18 min; the “ischemia-induced APD shortening” value is on record as “marked reduction in the rate of APD shortening”; the “ischemia-induced reduction of normalized APA and upstroke velocity (dF/dt)” value is reported as “protected against such decrease in both parameters”. Besides, the “hearts in which tachyarrhythmias were prevented” value in experiment [4] (bolus dose given just prior to reperfusion) is recorded as 2 of 3.
